# Key:
# [1] = Cytotoxicity against human neural progenitor cell by CellTiter-Glo Luminescent Cell Viability Assay; type: tissue-based; settings: neural progenitor cells
# Zika virus = assay: Antiviral activity against ZIKV infected in human neural progenitor cells incubated with cells for 24 hrs prior to viral infection followed by replacement of fresh medium containing compound and measured at 48 hrs post infection by RT-PCR method; settings: Neural Progenitor Cell
# LNCaP = assay: Growth inhibition of human LNCaP cells incubated for 72 hrs by MTT assay; type: functional, cell-based
# HCT-116 = assay: Anticancer activity against human HCT116 cells incubated for 5 days by MTT assay; type: functional, cell-based; settings: HCT-116, 120 h
# DU-145 = assay: Growth inhibition of human DU145 cells incubated for 72 hrs by MTT assay; type: functional, cell-based; settings: DU-145, 72 h
structure (smiles),measurement,setting,value
CCn1cc(C(=O)O)c(=O)c2cc(F)c(N3CCNCC3)nc21 [ENOXACIN],CC50,[1],176 µM
same,IC50,Zika virus,52 µM
same,EC50,LNCaP,105 µM
same,EC50,HCT-116,124 µM
same,EC50,DU-145,141 µM

# From ChEMBL document CHEMBL4680274, “Modulating microRNA Processing: Enoxacin, the Progenitor of a New Class of Drugs” (J Med Chem, 2020)
